The values below come from patent US8816109B2, “Process for preparation of hexadecyl cis-9-tetradecenoate and hexadecyl cis-10-tetradecenoate” (Council of Scientific & Industrial Research, priority 2009, dated 2014).

For test [1], the system named is Freund's complete adjuvant induced arthritis. Kind of test: Freund's complete adjuvant induced arthritis model, treatment of established arthritis. Format: in vivo, Male Wistar rats. The settings on record: for dose dependence of inhibition of arthritis: dose increased from 100 mg/kg to 300 mg/kg. Here is the method: (§1) The anti-inflammatory activity potential of both the isomers of the cetyl myristoleate (4 & 8) was evaluated initially in carrageenan induced rat paw edema model employing the method of Winter et al (Winter C A, Risley E A and Nuss G W, J. Pharmacolo. Exp. Ther. 1963; 141:369-376). The arthritis developed by injecting Freund's Complete Adjuvant in Wistar rats is almost similar to the rheumatoid arthritis of the human beings.
Effect of Hexadecyl cis-9-Tetradecenoate and Hexadecyl cis-10-Tetradecenoate on the Arthritic Rats: The hexadecyl cis-9-tetradecenoate, 4 and hexadecyl cis-10-tetradecenoate, 8 produced synthetically given above in Scheme 1 and 2 were subjected to evaluation for anti-arthritic potential in Freund's complete adjuvant induced arthritis model in rats. Male Wistar rats were divided into 4 groups each containing 6 rats. Arthritis was induced in rats in all the groups by administering Complete Freund's Adjuvant (CFA) at the dose of 1 mg per rat by injecting at sub plantar region of the right hind paw. Paw volumes were measured for both paws on every alternate day till 14 days and till full arthritis was developed.

Test [2] concerns collagen-induced arthritis. The settings on record: synthesized pure compound, DBA/1 Lac J mice; cited from earlier work.
In test [3] the test system is carrageenan induced paw edema. Kind of test: carrageenan induced rat paw edema model (anti-inflammatory potential). Format: in vivo. The settings on record: rats. The procedure:
as §1
Evaluation Studies of Hexadecyl cis-9-Tetradecenoate and Hexadecyl cis-10-Tetradecenoate for Anti-inflammatory. Potential: Hexadecyl cis-9-tetradecenoate, 4 and hexadecyl cis-10-tetradecenoate, 8 produced synthetically exemplified above in Scheme 1 and Scheme 2 were assessed for the anti-inflammatory potential against carrageenan induced paw edema model. Rats were divided into 4 groups. Hexadecyl cis-9-tetradecenoate, 4. and hexadecyl cis-10-tetradecenoate, 8 were administered intraperitoneally to rats in two different groups at a dose of 400 mg/kg. […] Paw volumes were measured using plethysmometer before injecting carrageenan. Paw volumes were again measured 3 hr after the carrageenan administration. The anti-inflammatory potential of hexadecyl cis-9-tetradecenoate, 4 and hexadecyl cis-10-tetradecenoate, 8 were assessed by measuring the inhibition of the paw volumes with reference to mean paw volume in control group.
(The carrageenan paw model is a standard test of acute inflammation.)

For test [4], the system named is Freund's Complete Adjuvant induced poly arthritis. Kind of test: Freund's complete adjuvant induced polyarthritis, protection (dosing from 24 hr after adjuvant). The format is in vivo, Male Wistar rats. The procedure:
Evaluation of Hexadecyl cis-10-Tetradecenoate for Anti-arthritic Potential in Rats: The hexadecyl cis-10-tetradecenoate, 8 produced synthetically exemplified above in Scheme 2 was administered parenterally, particularly, by intraperitoneal route, either alone or in a compatible pharmaceutical carrier such as vegetable oils namely groundnut, sesame and cottonseed [for adjusting the dose volume of the active compound(s)] to male rats ranging in weight from 150 to 180 g. It should be noted that use of the mineral oil is not mandatory as the active compounds are oils themselves. The procedure as described in (Vogel's Drug Discovery and Evaluation Pharmacological assays, 2nd ed, 2002, Springer Verlag, pages 802-803) was followed. Male Wistar-rats were divided into one control and two treated groups. All the animals in three groups received Freund's complete adjuvant (1 mg/rat). This day was designated as day 1. After a period of 24 hr, hexadecyl cis-10-tetradecenoate, 8 was administered at a dose of 300 mg/kg to one treated group and another treated group received 2.5 mg/kg of indomethacin (used as standard drug). Dosing was continued for 15 days (FIG. 3). Control group received the vehicle (mineral oil) without any drug. Paw volumes (left and right) were measured on every alternate day.
All the rats in the control group developed severe polyarthritis as indicated by the increase in the paw volumes. […] Around 80% of the animals in the hexadecyl cis-10-tetradecenoate treated group were protected from developing arthritis in a period of 21 days. The remaining 20% rats were protected from arthritis in a period of 32 days.

SMILES strings stand for the structures.

Regarding `CCCC/C=C\CCCCCCCC(=O)OCCCCCCCCCCCCCCCC` [compound 4, hexadecyl cis-9-tetradecenoate], in test [1], the “dose dependence of inhibition of arthritis” value is recorded as “dose dependent”. Also, the anti arthritic properties entry in test [2] was “confirmed its anti arthritic properties”.

Take `CCC/C=C\CCCCCCCCC(=O)OCCCCCCCCCCCCCCCC` [compound 8, hexadecyl cis-10-tetradecenoate]: the “inhibition of inflammation compared with hexadecyl cis-9-tetradecenoate, 4” value in test [3] is “comparable”. Besides, the “dose dependence of inhibition of arthritis” value in test [1] is “dose dependent”. In addition, in test [1] (rats), the “reduction of adjuvant-induced arthritis compared with hexadecyl cis-9-tetradecenoate, 4” value is “comparable”. Besides, the “animals protected from developing arthritis in a period of 21 days” value in test [4] (300 mg/kg intraperitoneal, dosing for 15 days) is given as “Around 80%”; in test [4] (300 mg/kg intraperitoneal, dosing for 15 days, listed as hexadecyl cis-10-tetradecenoate), 80%. Moreover, the “remaining rats protected from arthritis in a period of 32 days” value in test [4] (300 mg/kg intraperitoneal, dosing for 15 days, period of 32 days) came to 20%. Moreover, in test [4] (300 mg/kg intraperitoneal, from 24 hr after adjuvant, dosing continued for 15 days), the “protection from polyarthritis (paw volumes)” value was “protected from the polyarthritis”. Moreover, the “effective range (dose) for protection of arthritis” value in test [4] (rats, Freund's complete adjuvant) lay in the range of 0.1 to 1.0 gm/kg body weight.
